The test system of data set [1] is cardiac repolarization in healthy volunteers. As to the kind of experiment: Thorough QT/QTc (TQT) study (NCT04795479), cardiodynamic Holter ECG. As to conditions: for ΔΔQTcF Estimate (msec) (90% CI), predicted at geometric mean Cmax: PK/QTc population. An excerpt: These studies included a randomized, partial double-blind, placebo- and positive-controlled, multiple-dose, 4-way crossover, thorough QT/QTc (TQT) study to investigate the effect of relacorilant on cardiac repolarization. These studies measured placebo-corrected change-from-baseline QTcF (ΔΔQTcF); change-from-baseline of QTcF, HR, and PR and QRS intervals (ΔQTcF, ΔHR, ΔPR, and ΔQRS); placebo-corrected change-from-baseline of HR, and PR and QRS intervals (ΔΔHR, ΔΔPR, and ΔΔQRS); categorical outliers for QTcF, HR, and PR and QRS intervals; the frequency of treatment-emergent changes of T-wave morphology and presence of U-waves; PK parameters of relacorilant and its metabolites (CORT125337, CORT125336, and CORT125295) and moxifloxacin; safety profiles, including AEs/SAEs, physical examination, clinical chemistry, hematology, urinalysis, ECG, and vital signs.
A phase 1, randomized, partial double-blind, crossover thorough QT study (NCT04795479) to assess the effect of multiple doses of relacorilant on cardiac repolarization in healthy volunteers. Participants were randomized to dosing sequences to receive relacorilant at therapeutic (400 mg QD, n=25) or supra-therapeutic (800 mg QD, n=28) doses, or placebo (n=29) for 5 days. Moxifloxacin (400 mg single dose, n=28) was used as a positive control.
Each subject received 4 treatments in a randomized sequence during the study period. Each dosing consisted of 8 capsules (except for moxifloxacin on Day 5), including: • Treatment T: Multiple oral doses of 400 mg relacorilant (4 capsules)+placebo for relacorilant (4 capsules) once daily for 5 days; • Treatment ST: Multiple oral doses of 800 mg relacorilant (8 capsules) once daily for 5 days; • Treatment P: Multiple oral doses of placebo for relacorilant (8 capsules) once daily for 5 days; • Treatment M: Multiple oral doses of placebo for relacorilant (8 capsules) once daily for 4 days and a final single oral dose of 400 mg moxifloxacin (one tablet) on Day 5.
In a portion of present study conducted in healthy subjects, a single dose of moxifloxacin (400 mg; Treatment M) on the last day of its respective treatment period was included as a positive control to determine the sensitivity of the study to detect small QTc changes. Relacorilant doses included both a therapeutic dose level (400 mg; Treatment T) and a supra-therapeutic dose level (800 mg; Treatment ST). The study was blinded to subjects, investigator, study staff, and sponsor with respect to relacorilant (Treatments T and ST) and placebo for relacorilant (Treatment P); it was open-labeled for moxifloxacin (Treatment M). Enrolled subjects were randomized to one of twelve (12) dosing sequences to receive 4 different treatments according to the assigned dosing sequence as shown below:
In each period, subjects were admitted to the clinical site in the morning of Day-1 and stayed in the site until the morning of Day 6. In the study periods when subjects were randomized to Treatment T, ST, or P, the applicable study product (400 mg or 800 mg relacorilant or placebo for relacorilant) were taken once daily in the morning for 5 consecutive days. During the dosing period of positive control (Treatment M), placebo for relacorilant were administered on Days 1 to 4 to align with the dosing schedule for the other three treatments and moxifloxacin were administered in an open-labeled manner as a single dose in the morning of Day 5. Therefore, the treatment on Days 1 to 4 were double-blinded; it was not known before the morning on Day 5 whether or not a subject was allocated to receive moxifloxacin. Each dosing period (from Periods 2 to 4) was separated from the previous period by a washout period of at least 10 days from Day 6 of the previous period to Day 1 (first dose) of the subsequent period to prevent a carryover effect. The final visit was on Day 6 of Period 4. A safety phone follow-up was scheduled at 7 days (±2 days) post the final visit/early termination (ET) visit.

For data set [2] the following is noted: human, in vivo. As to the method: A phase 1, 3-part, single-center, First-in-Human study (NCT03508635) included 103 healthy volunteers who received single or multiple ascending doses (SAD/MAD) of relacorilant (up to 500 mg QD) for up to 14 days; 24 received placebo.
Relacorilant plasma concentration and QTcF data in the SAD and MAD phases were best fit with a linear model with treatment-specific intercepts. For both phases, the model-estimated slopes (90% CI) were slightly negative (SAD: −0.59[−2.14, 0.97]×10^−3 msec/ng/ml; MAD: −2.34[−3.16 to −1.52]×10^−3 msec/ng/ml). Therefore, a concentration-dependent effect of relacorilant on QTc prolongation was not identified.

Data set [3] relates to Cushing's syndrome patients. As to the kind of experiment: Separate study: relacorilant with another drug known to cause QT prolongation. It is filed as in vivo, human. As to conditions: at least 12 patients also receiving fluoroquinoline, imidazole derivative, macrolide or protease inhibitor drug.
A short description of data set [4]: Effect of food on relacorilant Cmax. It is filed as in vivo.
Data set [5] in a line: Plasma concentrations in TQT study (LC-MS/MS, non-compartmental PK). It is filed as in vivo, human. As to conditions: for Cmax: human, plasma, oral, Day 5, read-out: Geometric Mean Cmax. As to the method:
PK analyses were performed using non-compartmental methods to obtain estimates of the following parameters, where possible: […] Day 1: Cmax, Tmax, AUClast, and AUC0-24; Day 5: Cmax, Tmax, Cmin, AUClast, AUC0-tau, Cavg, FI, and AR. For moxifloxacin: Cmax, Tmax, AUClast, and AUC0-24. […] PK blood sampling for Day 1 was completed prior to dosing on Day 2.

Molecules are shown by their SMILES. Several values for one entry are separate records, joined by “and”; a condition that tells them apart may be missing. Identical values can stand only once. Like-named read-outs stand apart in the source and are kept apart here.

`Cn1cc(S(=O)(=O)N2CCC3=Cc4c(cnn4-c4ccc(F)cc4)C[C@]3(C(=O)c3cc(C(F)(F)F)ccn3)C2)cn1` [relacorilant, ((R)-(1-(4-fluorophenyl)-6-((1-methyl-1H-pyrazol-4-yl)sulfonyl)-4,4a,5,6,7,8-hexahydro-1H-pyrazolo[3,4-g]isoquinolin-4a-yl)(4-(trifluoromethyl)pyridine-2-yl)methanone)]: the “ΔΔQTcF Estimate (msec) (90% CI), predicted at geometric mean Cmax” value in data set [1] (400 mg (Day 5)) was -3.02 ms; in data set [1] (400 mg (Day 5), listed as Relacorilant) it was −3.02 (−4.16, −1.88)^1 msec; in data set [1] (800 mg (Day 5)), -3.87 ms; in data set [1] (800 mg (Day 5), listed as Relacorilant), −3.87 (−5.56, −2.17)^1 msec. Besides, the “effect on HR” value in data set [1] (400 mg and 800 mg QD) is on record as “did not have a clinically relevant effect on HR”. In data set [1] (2 hours post-dose on Day 5, 800 mg treatment), the “LS mean placebo-corrected ΔHR, highest across post-dose time points” value is given as 2.4 bpm. Further, the “LS mean placebo-corrected ΔHR, lowest across post-dose time points” value in data set [1] (12 hours post-dose on Day 1, 800 mg treatment) was −3.2 bpm. Also, the tolerability entry in data set [1] (Across all 3 studies (First-in-Human, TQT, and CS studies)) was “well tolerated”. Moreover, in data set [1] (concentration-QTc modeling, plasma concentrations up to ˜4500 ng/mL), the “effect on ΔΔQTcF exceeding the 10-msec threshold” value is recorded as “excluded”. For the same compound, in data set [1] (linear mixed-effects model), the “estimated slope (90% CI) of plasma concentration in the concentration-QTc relationship” value was −0.97(−1.68, −0.25) ×10^−3 msec/ng/ml and −0.97 ×10^−3 msec/ng/ml. The “effect on ECG parameters” value in data set [1] (therapeutic (400 mg) and supra-therapeutic (800 mg) doses) is reported as “no adverse effects on ECG parameters”. In addition, the results for the “observed range of plasma concentrations, upper end” value in data set [2] and in data set [5] (supra-therapeutic dosing (800 mg)) were “approximately 4000 ng/ml” and around 4500 ng/mL, respectively. Besides, in data set [2], the “time of Cmax” value was 2 h. For the same compound, in data set [3], the QT prolongation result is recorded as “no clinically significant QT prolongation”. For the same compound, the results for the “increase of Cmax relative to fasting conditions” value in data set [4] (high-fat breakfast) and in data set [4] (moderate-fat breakfast) were “approximately 34%” and around 41%, respectively. Also, the highest concentration (Cmax) (usually the maximum level reached in the sampled fluid or tissue) in data set [5] (400 mg QD) is 1830 ng/mL; in data set [5] (800 mg QD) it was 2710 ng/mL.

These data come from patent US20240197716A1, “TREATMENTS FOR CUSHING'S SYNDROME THAT DO NOT SIGNIFICANTLY AFFECT CARDIAC RHYTHMS” (Corcept Therapeutics Incorporated, priority 2022, published 2024).
